Source: patent US20240092758A1, “IMIDAZOLO INDAZOLE COMPOUNDS AS JAK INHIBITORS” (Theravance Biopharma R&D IP, LLC, priority 2021, published 2024)

How the values were obtained:
JAK1 = JAK1 (Homo sapiens (Human), UniProt P23458); experiment: Biochemical JAK kinase assay (LanthaScreen), JAK1; conditions: for Ki: read-out: JAK1 pKi (converted)
Summary of the method: (§1)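 LanthaScreen format: phospho-STAT1 (pTyr701) detected with 2 nM Tb antibody after 10 mM EDTA quench. Kinase step used Km-level ATP and 200 nM STAT1 peptide, 1 h at ambient after 1 h pre-incubation. Inhibition fitted to IC50, reported as pKi.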

JAK2 = JAK2 (Homo sapiens (Human), UniProt O60674); experiment: Biochemical JAK kinase assay (LanthaScreen), JAK2; conditions: for Ki: read-out: JAK2 pKi (converted)
Summary of the method: as §1

[1] = tested on: IL-13 induced STAT6 phosphorylation in BEAS-2B human lung epithelial cells; experiment: Cellular JAKI potency assay (BEAS-2B); type: cell-based; conditions: Homo sapiens, BEAS-2B, BEAS-2B cells, read-out: BEAS2B pIC50 (converted)
Summary of the method: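 BEAS-2B cells were preincubated with compound (0.1% DMSO) in HBSS/HEPES/BSA for 1 h at 37 °C, then stimulated with IL-13 (80 ng/mL before addition) for 30 min. After lysis, pSTAT6 (Tyr641) was quantified by AlphaLISA SureFire; IC50 from a 4-parameter fit of percent inhibition, reported as pIC50.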

Sequence of JAK2 (O60674 whole entry): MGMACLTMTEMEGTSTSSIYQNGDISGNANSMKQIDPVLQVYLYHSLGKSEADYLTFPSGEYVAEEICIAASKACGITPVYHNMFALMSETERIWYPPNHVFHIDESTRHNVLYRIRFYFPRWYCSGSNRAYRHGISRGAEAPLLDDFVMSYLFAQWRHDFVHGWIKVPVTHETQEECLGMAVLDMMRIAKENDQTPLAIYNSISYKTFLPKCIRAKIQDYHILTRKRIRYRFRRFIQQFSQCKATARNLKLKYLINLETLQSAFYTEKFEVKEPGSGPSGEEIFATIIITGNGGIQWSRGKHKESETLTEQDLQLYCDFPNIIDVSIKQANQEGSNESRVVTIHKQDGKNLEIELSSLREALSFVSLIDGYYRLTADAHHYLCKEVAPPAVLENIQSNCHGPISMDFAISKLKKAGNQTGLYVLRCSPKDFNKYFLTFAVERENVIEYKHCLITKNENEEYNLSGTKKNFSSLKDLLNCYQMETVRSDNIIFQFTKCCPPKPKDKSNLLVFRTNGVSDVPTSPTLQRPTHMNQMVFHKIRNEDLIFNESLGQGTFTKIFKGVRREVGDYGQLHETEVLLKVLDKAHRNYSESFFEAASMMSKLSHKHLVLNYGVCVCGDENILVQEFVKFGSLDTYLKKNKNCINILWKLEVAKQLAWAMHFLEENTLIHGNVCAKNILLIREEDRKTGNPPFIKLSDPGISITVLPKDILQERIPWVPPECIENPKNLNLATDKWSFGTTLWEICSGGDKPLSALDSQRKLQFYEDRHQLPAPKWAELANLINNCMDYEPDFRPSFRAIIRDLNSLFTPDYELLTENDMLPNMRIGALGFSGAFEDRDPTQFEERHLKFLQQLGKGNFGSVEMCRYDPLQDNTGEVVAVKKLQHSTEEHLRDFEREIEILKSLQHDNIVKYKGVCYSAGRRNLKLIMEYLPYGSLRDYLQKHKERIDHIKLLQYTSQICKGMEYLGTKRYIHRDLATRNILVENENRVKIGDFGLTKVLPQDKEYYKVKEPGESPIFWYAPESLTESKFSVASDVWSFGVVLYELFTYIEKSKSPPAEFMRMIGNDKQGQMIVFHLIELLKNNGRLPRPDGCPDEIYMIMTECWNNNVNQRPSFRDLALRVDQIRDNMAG
Sequence of JAK1 (P23458 whole entry): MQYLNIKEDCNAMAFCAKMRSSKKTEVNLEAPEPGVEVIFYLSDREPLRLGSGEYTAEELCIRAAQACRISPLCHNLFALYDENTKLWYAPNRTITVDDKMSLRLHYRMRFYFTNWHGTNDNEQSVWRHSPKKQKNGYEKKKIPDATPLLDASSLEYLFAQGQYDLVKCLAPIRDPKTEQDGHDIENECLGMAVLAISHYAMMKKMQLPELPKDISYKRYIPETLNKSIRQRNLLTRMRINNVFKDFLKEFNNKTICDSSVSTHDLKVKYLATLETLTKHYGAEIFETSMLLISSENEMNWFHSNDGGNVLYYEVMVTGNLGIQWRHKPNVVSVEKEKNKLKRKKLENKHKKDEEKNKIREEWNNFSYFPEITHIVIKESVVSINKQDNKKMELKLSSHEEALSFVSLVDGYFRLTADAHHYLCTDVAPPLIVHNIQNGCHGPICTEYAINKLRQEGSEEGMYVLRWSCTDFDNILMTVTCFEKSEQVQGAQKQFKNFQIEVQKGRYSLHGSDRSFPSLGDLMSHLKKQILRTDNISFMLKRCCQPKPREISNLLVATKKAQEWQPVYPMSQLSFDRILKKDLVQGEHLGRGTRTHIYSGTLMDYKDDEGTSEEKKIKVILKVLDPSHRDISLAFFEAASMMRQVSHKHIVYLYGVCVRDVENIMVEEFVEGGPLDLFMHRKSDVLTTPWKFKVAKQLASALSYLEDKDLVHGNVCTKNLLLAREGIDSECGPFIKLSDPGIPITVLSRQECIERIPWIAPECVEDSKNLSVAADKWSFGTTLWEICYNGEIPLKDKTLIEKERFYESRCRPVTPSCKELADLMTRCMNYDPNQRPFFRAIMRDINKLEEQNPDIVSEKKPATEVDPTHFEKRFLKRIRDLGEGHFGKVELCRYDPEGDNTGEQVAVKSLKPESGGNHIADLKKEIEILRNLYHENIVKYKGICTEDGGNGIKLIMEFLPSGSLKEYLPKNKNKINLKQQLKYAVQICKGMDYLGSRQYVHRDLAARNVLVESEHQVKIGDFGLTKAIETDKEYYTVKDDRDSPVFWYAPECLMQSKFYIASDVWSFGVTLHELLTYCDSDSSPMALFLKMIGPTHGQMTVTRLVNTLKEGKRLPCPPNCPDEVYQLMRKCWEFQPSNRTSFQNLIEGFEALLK

SMILES	Ki (JAK1) [nM]	Ki (JAK2) [nM]	IC50 [1] [nM]	JAK2 pKi (JAK2)	JAK1 pKi (JAK1)
CCc1cc(O)ccc1-c1ccc2c(-c3nc(C4=CCN(Cc5ccccc5)CC4)c[nH]3)n[nH]c2c1F [Example 134]	1 to 10	1 to 10	100 to 316	–	–
CCc1cc(O)ccc1-c1ccc2c(-c3nc(C4=CCC5(CNC5)OC4)c[nH]3)n[nH]c2c1 [Example 229]	0.1 to 1	–	31.6 to 100	A (A represents a pKi value ≥10 (Ki≤0.1 nM))	–
CCc1cc(O)ccc1-c1ccc2c(-c3nc(C4=C(C(=O)OC(C)C)CNCC4)c[nH]3)n[nH]c2c1F [Example 325]	0.1 to 1	0.1 to 1	10 to 31.6	–	–
CCc1cc(O)ccc1-c1ccc2c(-c3nc(C4=CCN(C5CCOCC5)CC4)c[nH]3)n[nH]c2c1F [Example 61]	0.1 to 1	–	10 to 31.6	A (A represents a pKi value ≥10 (Ki≤0.1 nM))	–
CCc1cc(O)ccc1-c1ccc2c(-c3nc(C4=CCCN(C(C)C5CC(O)C5)C4)c[nH]3)n[nH]c2c1F (stereo not drawn) [Example 66]	0.1 to 1	–	10 to 31.6	A (A represents a pKi value ≥10 (Ki≤0.1 nM))	–
CCc1cc(O)ccc1-c1ccc2c(-c3nc(C4=CCN(Cc5cnn[nH]5)CC4)c[nH]3)n[nH]c2c1 [Example 133]	0.1 to 1	–	10 to 31.6	A (A represents a pKi value ≥10 (Ki≤0.1 nM))	–
CCc1cc(O)ccc1-c1ccc2c(-c3nc(C4=CCCN(CCO)C4)c[nH]3)n[nH]c2c1 [Example 41]	0.1 to 1	–	3.16 to 10	A (A represents a pKi value ≥10 (Ki≤0.1 nM))	–
CCc1cc(O)ccc1-c1ccc2c(-c3nc(C4=CCNC4C)c[nH]3)n[nH]c2c1F (stereo not drawn) [Example 313]	0.1 to 1	0.1 to 1	10 to 31.6	–	–
CCc1cc(O)ccc1-c1ccc2c(-c3nc(C4=CCN(CCNC(C)=O)CC4)c[nH]3)n[nH]c2c1 [Example 100]	–	–	3.16 to 10	A (A represents a pKi value ≥10 (Ki≤0.1 nM))	A (A represents a pKi value ≥10 (Ki≤0.1 nM))
CCc1cc(O)ccc1-c1ccc2c(-c3nc(C4=CCN([C@H]5CC[C@@](C)(O)CC5)C4)c[nH]3)n[nH]c2c1F [Example 341]	–	–	10 to 31.6	A (A represents a pKi value ≥10 (Ki≤0.1 nM))	A (A represents a pKi value ≥10 (Ki≤0.1 nM))
CCc1cc(O)ccc1-c1ccc2c(-c3nc(C4=CCN(Cc5cnoc5)CC4)c[nH]3)n[nH]c2c1F [Example 326]	0.1 to 1	0.1 to 1	10 to 31.6	–	–
CCc1cc(O)ccc1-c1ccc2c(-c3nc(C4=CCN(CCC(=O)NC)C4)c[nH]3)n[nH]c2c1 [Example 95]	–	–	10 to 31.6	A (A represents a pKi value ≥10 (Ki≤0.1 nM))	A (A represents a pKi value ≥10 (Ki≤0.1 nM))
CCc1cc(O)ccc1-c1ccc2c(-c3nc(C4=CCN(CCCNS(=O)(=O)C(C)C)CC4)c[nH]3)n[nH]c2c1 [Example 105]	–	–	10 to 31.6	A (A represents a pKi value ≥10 (Ki≤0.1 nM))	A (A represents a pKi value ≥10 (Ki≤0.1 nM))
CCc1cc(O)ccc1-c1ccc2c(-c3nc(C4=CCN(C(C)=O)C4)c[nH]3)n[nH]c2c1F [Example 171]	0.1 to 1	0.1 to 1	10 to 31.6	–	–
CCc1cc(O)ccc1-c1ccc2c(-c3nc(C4=CCCN(CCCOC)C4)c[nH]3)n[nH]c2c1 [Example 65]	0.1 to 1	0.1 to 1	3.16 to 10	–	–
CCc1cc(O)ccc1-c1ccc2c(-c3nc(C4=C[C@@H](COC)NC4)c[nH]3)n[nH]c2c1 [Example 242]	–	0.1 to 1	3.16 to 10	–	A (A represents a pKi value ≥10 (Ki≤0.1 nM))
CCc1cc(O)ccc1-c1ccc2c(-c3nc(C4=CCN(CC5CCCO5)CC4)c[nH]3)n[nH]c2c1F (stereo not drawn) [Example 62]	0.1 to 1	–	10 to 31.6	A (A represents a pKi value ≥10 (Ki≤0.1 nM))	–
CCc1cc(O)ccc1-c1ccc2c(-c3nc(C4=CC5CN(C)CCN5CC4)c[nH]3)n[nH]c2c1F (stereo not drawn) [Example 335]	0.1 to 1	0.1 to 1	10 to 31.6	–	–
CCc1cc(O)ccc1-c1ccc2c(-c3nc(C4=CCN(C(=O)[C@H](COC)NC)C4)c[nH]3)n[nH]c2c1F [Example 375]	0.1 to 1	–	31.6 to 100	A (A represents a pKi value ≥10 (Ki≤0.1 nM))	–
CCc1cc(O)ccc1-c1ccc2c(-c3nc(C4=CCCN(CCNS(C)(=O)=O)C4)c[nH]3)n[nH]c2c1 [Example 108]	0.1 to 1	–	10 to 31.6	A (A represents a pKi value ≥10 (Ki≤0.1 nM))	–
CCc1cc(O)ccc1-c1ccc2c(-c3nc(C4=CCN(C(=O)NC)C4)c[nH]3)n[nH]c2c1 [Example 169]	0.1 to 1	–	31.6 to 100	A (A represents a pKi value ≥10 (Ki≤0.1 nM))	–
